Source: ChEMBL document CHEMBL5096175, “An insight into the medicinal attributes of berberine derivatives: A review” (Bioorg Med Chem, 2021)
Blank lines part the entries; values can stand above or below the compound they belong to.

Columns and labels:
[1] = Cytotoxicity against mouse 3T3-L1 assessed as reduction in cell viability measured after 48 hrs by CCK-8 assay; type: toxicity, cell-based; conditions: 3T3-L1 cells
[2] = Acute toxicity in ip dosed NIH mouse expressing aP2-SREBP-1c assessed as lethal dose measured for 14 days by modified karber's method; type: organism-based; conditions: in vivo, time 14 day
HL-60 [3] = assay: Antiproliferative activity against human HL-60 cells incubated for 48 hrs by MTT assay; type: functional, cell-based; conditions: HL-60, 48 h
HL-60 [4] = assay: Potency index, ratio of berberine IC50 to test compound IC50 for antiproliferative activity against human HL-60 cells incubated for 48 hrs by MTT assay; type: functional
Coxsackievirus B4 = assay: Antiviral activity against Coxsackievirus B4 infected in African green monkey Vero cells assessed as reduction in virus-induced cytopathic effect incubated for 48 hrs by microscopic analysis; type: functional, organism-based; conditions: Enterovirus B
Coxsackievirus B5 = assay: Antiviral activity against Coxsackievirus B5 infected in African green monkey Vero cells assessed as reduction in virus-induced cytopathic effect incubated for 48 hrs by microscopic analysis; type: functional, organism-based; conditions: Enterovirus B
Coxsackievirus B2 = assay: Antiviral activity against Human Coxsackievirus B2 infected in African green monkey Vero cells assessed as reduction in virus-induced cytopathic effect incubated for 48 hrs by microscopic analysis; type: functional, organism-based; conditions: Enterovirus B
Coxsackievirus B3 = assay: Antiviral activity against Coxsackievirus B3 infected in African green monkey Vero cells assessed as reduction in virus-induced cytopathic effect incubated for 48 hrs by microscopic analysis; type: functional, organism-based; conditions: Enterovirus B
Coxsackievirus B6 = assay: Antiviral activity against Human Coxsackievirus B6 infected in African green monkey Vero cells assessed as reduction in virus-induced cytopathic effect incubated for 48 hrs by microscopic analysis; type: functional, organism-based; conditions: Enterovirus B
[5] = Induction of glucose-stimulated insulin secretion in rat INS1 cells assessed as increase in insulin secretion at 25 uM pretreated for 48 hrs followed by glucose stimulation and measured after 1 hr by ELISA; type: functional
RAW264.7 [6] = assay: Antiinflammatory activity in LPS-induced mouse RAW264.7 cells assessed as reduction in […] level at 25 uM pretreated for 1 hr followed by LPS stimulation and measured after 49 hrs by ELISA relative to control; type: functional; set-up: scale not given: the % may be the effect or the level left; conditions: time 50 hrs
RAW264.7 [7] = assay: Antiinflammatory activity in LPS-induced mouse RAW264.7 cells assessed as reduction in COX-2 level at 25 uM pretreated for 1 hr followed by LPS stimulation and measured after 49 hrs by ELISA relative to control; type: functional; set-up: scale not given: the % may be the effect or the level left; conditions: time 50 hrs

SMILES: C=CCc1ccc(O)c(-c2cc(CC=C)ccc2OCCOc2c(OC)ccc3cc4[n+](cc23)CCc2cc3c(cc2-4)OCO3)c1.[Cl-]
- IC50 at 48 h [1]: 11.5 µM
- LD50 at 336 h [2]: 279 mg/kg

- IC50 (HL-60 [3]): 700 nM
SMILES: COc1ccc2cc3[n+](cc2c1OCCCBr)CCc1cc2c(cc1-3)OCO2.[Cl-]
- Ratio IC50 (HL-60 [4]): 30

- IC50 (Coxsackievirus B4): 3.08 µM
- IC50 (Coxsackievirus B5): 3.08 µM
- IC50 (Coxsackievirus B2): 3.08 µM
- IC50 (Coxsackievirus B3): 3.08 µM
- IC50 (Coxsackievirus B6): 3.08 µM
SMILES: COc1cc2c(cc1OCCOCCN)CC[n+]1cc3c(OC)c(OC)ccc3cc1-2

SMILES: COc1ccc2cc3[n+](cc2c1OCc1nc(C)nc(N(C)C)n1)CCc1cc2c(cc1-3)OCO2.[Cl-]
- Activity [5]: 143%
- Activity (RAW264.7 [6]): 36.41%
- Activity (RAW264.7 [7]): 25.42%
